In publication PMC11509018, “Evaluation of the Role of Tanshinone I in an In Vitro System of Charcot-Marie-Tooth Disease Type 2N” (International Journal of Molecular Sciences, 2024):

Key:
[1] = tested on: NSC34 cells; test: Cell viability (CCK-8 assay); assay type: cell-based; conditions: up to 40 μM, 24 h
Method: (§1) Further validation of the safety and efficacy of Tanshinone I involved conducting cytotoxicity assays to ensure minimal toxicity to normal cells, while effectively inhibiting the abnormal interaction between AlaRS CMT mutants and Nrp1. We used the CCK-8 assay to evaluate the effects of Tanshinone I on 293T and NSC34 cells. Cells were treated with different concentrations of Tanshinone I for 24 h, followed by incubation with CCK-8 reagent. […] The Cell Counting Kit-8 (CCK-8) assay was performed to assess cell viability following the manufacturer’s instructions. Briefly, cells were seeded at an initial density of 5 × 10^3 cells per well in a 96-well plate and incubated overnight. The following day, the cells were treated with various concentrations of Tanshinone I. After 24 h of treatment, 10 μL of CCK-8 reagent (GlpBio, Montclair, CA, USA) was added to each well, and the plate was incubated at 37 °C with 5% CO2 for 1.5 h. Absorbance was then measured at 450 nm using a multimode microplate reader. The experiment was repeated three times.

[2] = tested on: 293T cells; test: Cell viability (CCK-8 assay); assay type: cell-based; conditions: up to 40 μM, 24 h
Method: as §1

[3] = biological target: T1, AlaRS^R329H (Homo sapiens, UniProt P49588, R329H); test: Thermal shift assay (TSA); assay type: binding; conditions: positive hit = shift of more than 2.5 °C
T1 construct: made in house; host or cells: E. coli BL21 (DE3), pET-21a
T1 sequence (P49588 1-968 R329H): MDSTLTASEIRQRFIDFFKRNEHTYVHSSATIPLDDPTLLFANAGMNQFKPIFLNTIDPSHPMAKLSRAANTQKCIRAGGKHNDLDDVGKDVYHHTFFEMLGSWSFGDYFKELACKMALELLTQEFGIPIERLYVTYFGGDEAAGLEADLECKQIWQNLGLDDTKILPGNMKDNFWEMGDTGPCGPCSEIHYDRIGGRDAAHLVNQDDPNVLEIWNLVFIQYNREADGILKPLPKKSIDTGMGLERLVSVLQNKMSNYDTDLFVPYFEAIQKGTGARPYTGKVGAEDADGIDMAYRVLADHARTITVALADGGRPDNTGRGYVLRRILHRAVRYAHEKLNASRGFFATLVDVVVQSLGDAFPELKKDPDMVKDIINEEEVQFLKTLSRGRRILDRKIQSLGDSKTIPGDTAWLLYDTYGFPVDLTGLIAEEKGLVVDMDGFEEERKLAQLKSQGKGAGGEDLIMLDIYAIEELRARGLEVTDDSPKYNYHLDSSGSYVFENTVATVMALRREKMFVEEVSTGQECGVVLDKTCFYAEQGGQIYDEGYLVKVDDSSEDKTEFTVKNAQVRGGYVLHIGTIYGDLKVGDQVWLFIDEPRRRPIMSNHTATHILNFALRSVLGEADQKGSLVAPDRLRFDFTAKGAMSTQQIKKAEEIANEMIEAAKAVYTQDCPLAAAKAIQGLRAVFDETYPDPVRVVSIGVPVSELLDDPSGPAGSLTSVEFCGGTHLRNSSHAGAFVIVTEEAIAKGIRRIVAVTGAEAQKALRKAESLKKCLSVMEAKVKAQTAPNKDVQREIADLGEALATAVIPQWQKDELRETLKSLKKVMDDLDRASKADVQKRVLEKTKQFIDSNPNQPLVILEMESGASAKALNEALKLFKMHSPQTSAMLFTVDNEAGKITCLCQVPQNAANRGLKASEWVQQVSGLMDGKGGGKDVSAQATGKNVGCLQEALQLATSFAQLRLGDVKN
Excerpt: In this assay, with increasing temperatures, the protein undergoes thermal unfolding, exposing its hydrophobic core. Subsequently, a fluorescent dye binds to these hydrophobic regions, becoming unquenched. Fluorescence is closely monitored, and the midpoint of the protein unfolding transition is designated as the Tm. Ligand binding frequently influences protein thermal stability during denaturation. Thus, the ligand binding affinity of any potential inhibitor can be gauged by evaluating the shift in the Tm. In this experiment, we screened a library of 2000 small molecules (Table S1) and classified as positive hits those that caused a shift in the Tm of the mutant protein of more than 2.5 °C. From the TSA, we identified four small molecules that met this criterion (Figure 2A, Table 1). Specifically, Atazanavir sulfate caused a shift of 4.0 °C, Tanshinone I a shift of 3.1 °C, Hederacolchiside A1 a shift of 4.3 °C, and Hexylresorcinol a shift of 5.5 °C (Figure 2B). To assess the impact of small molecules on the thermal stability of mutant proteins, thermal shift assays were performed using a […] (Applied Biosystems, Waltham, MA, USA) with the Protein Thermal Shift™ Kit dye (Thermo Fisher Scientific, Waltham, MA, USA). Each well of a 96-well Optical Reaction Plate (Applied Biosystems) contained 14 μL of thermal shift buffer, 2 μL of diluted thermal shift dye (8×), 2 μL of a 1 mM small molecule solution, and 2 μL of 1 mg/mL protein. Plates were incubated at 4 °C for 1 h before being heated from 25 °C to 95 °C at 1 °C/min. The fluorescence signal of SYPRO orange (excitation/emission: 490/530 nm) was recorded at 30 s intervals to monitor protein denaturation. The melting temperature (Tm), defined as the midpoint of the unfolding transition, was determined from the fluorescence–temperature curve. ΔTm was calculated as the difference in Tm between AlaRS^R329H treated with compounds and the control. Experiments were conducted in triplicate for accuracy. The experiment was repeated three times.

## Cc1coc2c1C(=O)C(=O)c1c-2ccc2c(C)cccc12 [Tanshinone I]
[1]
  Cell viability: did not significantly affect the viability
[2]
  Cell viability: did not significantly affect the viability
[3]
  ΔTm (shift between the Tm values of AlaRS^R329H with and without compounds): 3.1 °C
